We go through one substance from publication PMC11904948, “Peptide‐Drug Conjugate for Therapeutic Reprogramming of Tumor‐Associated Macrophages in Breast Cancer” (Advanced Science, 2025).

The assay relates to orthotopic 4T1.2 tumors. The assay can be described thus: MACTIDE-V monotherapy in orthotopic 4T1.2. It is filed as in vivo, Balb/c mice. On the procedure: We evaluated the effect of MACTIDE‐V on tumor progression and metastasis in the highly metastatic orthotopic 4T1.2 model.^[ [33] ^] When tumors reached 55 mm^3 we began the treatment with MACTIDE‐V or CtrlPep‐V every other day until day 23, using the same dose used in section 5. […] No body weight loss was detected in any of the groups (Figure S7, Supporting Information).
Figure 7 MACTIDE‐V slows tumor growth and suppresses lung metastasis in orthotopic 4T1.2. 4T1.2 bearing mice were treated with 9 doses of CtrlPep‐V, MACTIDE‐V (1 mg Kg^−1 in Verteporfin per dose), or PBS i.p. every other day, while monitoring the primary tumor volume (A). Mice were sacrificed on day 25, tumor weights were measured (B) and pulmonary metastasis areas were quantified from H&E sections (C). D–G) Tumor cell suspensions were analyzed by flow cytometry (n = 4 per group). H) Representative mIHC images of PBS, CtrlPep‐V, and MACTIDE‐V treated tumors, scale bar = 100 µm. I) CD8^+ T cells, CD4^+ T cells, and Treg density obtained from mIHC images (n = 6 mice/group), with every dot representing the mean cell density of each tumor obtained from 20 images. Median ± interquartile range. One‐way ANOVA with multiple comparisons, ^* p ≤ 0.05, ^** p ≤ 0.01.
5×10^5 4T1.2 cells in 50 µL of PBS was injected subcutaneously to 4th mammary fat pad. On day 7, mice were sorted into groups based on tumor volume, ≈55—60 mm^3 calculated based on the formula shown above. Mice were treated every other day with 500 µL of MACTIDE‐V, CtrlPep‐V (30 nmol), and PBS, 9 injections in total, n = 10 mice/group. The cumulative Verteporfin dose was 9 mg kg^−1. The last injection was on day 23. Four mice from each group were sacrificed on day 25 through anesthetic overdose and their tumors were analyzed by flow cytometry (FC) and mIHC. The rest of the mice were left to continue in the study with the initial intention of performing a survival study, however, all of these mice were sacrificed within 5 days based on their tumor size (above 1500 mm^3) or cachexia.
For FC, mice were not perfused, the tumors were cut into small pieces, digested using 10 mL of collagenase IV (200 U mL^−1, Gibco, catalog no.17104019), dispase (0.6 U mL^−1, Gibco, catalog no. 17105‐041) and DNase I (15 U mL^−1, AppliChem, catalog no. A3778) mixture on a rotating platform for up to 60 min at 37 °C, pipetting every 10 min. Red blood cells were lysed using 3 mL of ammonium‐chloride‐potassium lysis buffer. After that, cells were centrifuged (350×g, 7 min, +4 °C), filtered (100 µm cell strainer, Falcon, catalog no. 352360), and counted using the bright‐field mode of LUNA Automated Cell counter (Logos Biosystems). Cells were seeded at a concentration of 5×10^6 cells/100 µL of running buffer (RB) (1L of RB: 4 mL 0.5M EDTA + 100 mL FBS + the rest PBS) on the 96‐well conical bottom plate and incubated for 15 min in dark at RT in 50 µL of Zombie NIR Fixable Viability Kit (BioLegend). After that, 30 µL of blocking antibody (TruStain FcX, Biolegend) was added and incubated for 10 min in the dark at +4 °C. Then, to stain macrophages, 20 µL of antibody mixture was added, and incubated for 25 min in the dark at +4 °C after which 50 µL of RB was added, centrifuged, washed two times with 150 µL of RB, and taken up in 150 µL of RB. For intracellular staining, cells were fixed and permeabilized using the eBioscience Foxp3/Transcription Factor Staining Buffer Set (Thermofisher). Cells were then stained with 100 µL of antibody mixture and incubated for 40 min in the dark at RT. Cells were centrifuged, washed twice with 150 µL of RB, and resuspended in 150 µL of RB. Samples were analyzed using the SONY ID7000 spectral flow cytometer and the accompanying software (Table 4 ).
To determine the pulmonary metastatic area, lungs from MACTIDE‐V monotherapy were stained for hematoxylin and eosin according to the following protocol. […]

Where [1] appears, read: tumor flow cytometry, n = 4 per group.

For the substance “Vert‐Ahx‐G(CTKSIPPIC)SPGAK‐OH (disulfide) [MACTIDE‐V]”, the primary tumor volume result (9 doses i.p. every other day, 30 nmol (1 mg Kg^−1 in Verteporfin per dose), 4 weeks after tumor induction, versus CtrlPep‐V and PBS) is “significantly smaller tumor volumes”. The pulmonary metastasis entry (9 doses i.p. every other day, 1 mg Kg^−1 in Verteporfin per dose, area from H&E sections) is listed as “fewer pulmonary metastasis”. Besides, for the setting “9 doses i.p. every other day, 1 mg Kg^−1 in Verteporfin per dose, sacrifice day 25”, the endpoint tumor weights entry is given as “smaller endpoint tumor weights”. Moreover, the “CD4^+ T cell density (mIHC)” value (compared to CtrlPep‐V and PBS, n = 6 mice/group) is recorded as “significant increase in CD4^+ T cell density”. Besides, the “Treg density (mIHC)” value (n = 6 mice/group) is “no differences in Treg density”. Moreover, under setting [1], the “MHC II^−CD206^+ subset of TAM/monocytes” value is listed as “decreased”; the “PD‐1 expression in CD8^+ and CD4^+ T cells” value is reported as “decrease in PD‐1 expression”; the “percentage of MHCII^+CD206^+ TAM/monocytes” value was “increased”; the “tumor‐infiltrating B cells” value is “no change”. Also, the “proportion of tumor‐infiltrating T cells and NK cells” value (tumor flow cytometry, with respect to CtrlPep‐V and PBS, n = 4 per group) is “rise in the proportion”.
